Like-named read-outs stand apart in the source and are kept apart here.
What was measured:
[1] = Physical and chemical stability of Compound 4 solutions at ambient temperature; type: physicochemical; details: 20-25° C.
Protocol: In this example, Compound 4 was formulated as a solution for topical ocular administration. Solutions of Compound 4 were formulated at a range of concentrations. Briefly, Compound 4 was first completely solubilized using an acidic solution (0.1N HCl) at a high concentration of ˜5% (w/v). The final formulation was diluted to 0.5, 0.1, or 0.05% (w/v) Compound 4 into 20 mM Citrate buffered solution containing TWEEN 80 as described in Table 7. Following dilution, the pH's of the formulations were estimated to be ˜5.5-6.5, using a universal pH indicator solution (Ricca).
Solution physical and chemical stability at ambient temperature (20-25° C.) were evaluated 10-21 days after initial formulation (tfinal). Physical stability was assessed visually. No precipitation or sedimentation in any samples was observed. All formulations maintained good chemical stability, within 10% of target concentration at tfinal. The API purity as defined by % peak area for all formulations were also high, at >99% (Table 8). Formulations pH's were also measured using a universal pH indicator solution (RICCA) and confirmed be similar to those at initial time of formulation.

[2] = Particle size of compounds milled with PLURONIC F127 as MPP, by dynamic light scattering; type: physicochemical; details: formulated as MPP, milled with PLURONIC F127, buffered with DPBS
From the text: The compounds of the present invention synthesized in accordance with the preceding Examples were formulated as mucus penetrating particles (MPP). Specifically, Compound 4 of Example 1, Compound 9 of Example 2, and Compound 13 of Example 3 were each milled in the presence of PLURONIC F127 (F127) to determine whether F127 1) aids particle size reduction to several hundreds of nanometers and 2) physically (non-covalently) coats the surface of generated nanoparticles with a mucoinert coating that would minimize particle interactions with mucus constituents and prevent mucus adhesion.
A milling procedure was employed in which an aqueous dispersion containing coarse drug particles and PLURONIC F127 (F127) was milled with grinding medium until particle size was reduced below 400 nm as measured by dynamic light scattering. Table 4 lists the size of particles and polydispersity index (a measure of the width of the particle size distribution) generated using this technique. In this example suspensions were buffered using DPBS (Dulbecco's Phosphate-Buffered Saline) which yields a suspension that is both isotonic and has a physiologically relevant pH.

[3] = Draize-Ocular Irritation assessment during the PK study; type: in vivo, Dutch-belted rabbits; details: MPP 0.5%, 50 μL topical, BID 5 days
From the text: (§1) Dutch-belted rabbits were used in these studies.

[4] = Pharmacokinetic study, back of the eye drug exposure after topical instillation of MPP; type: in vivo, Dutch-belted rabbits; details: Dutch-belted, rabbit, topical or ocular, 50 μL of 0.5% MPP, MPP 0.5%, 50 μL topical, BID 5 days, 8 mm round punch
From the text: as §1
The portion of the retina and choroid collected and analyzed was an 8 mm round punch where the macula is located in humans.

[5] = target API 0.05% (w/v), TWEEN 80 0.05% (w/v), tfinal 13 days
[6] = target API 0.10% (w/v), TWEEN 80 0.1% (w/v), tfinal 21 days
[7] = target API 0.50% (w/v), TWEEN 80 4% (w/v), tfinal 10 days

COc1cc2c(Oc3ccc4[nH]c(C)cc4c3F)ncnc2cc1OCCCN1CCC2(CC1)COC2 [Compound 4, 7-(3-(4-(4-fluoro-2-methyl-1H-indol-5-yloxy)-6-methoxyquinazolin-7-yloxy)propyl)-2-oxa-7-azaspiro[3.5]nonane]
API % (w/v) at t = tfinal [1, 5]: 0.05 % (w/v) | API % peak area at t = tfinal [1, 5]: 99.45% | API % (w/v) at t = tfinal [1, 6]: 0.11 % (w/v) | API % peak area at t = tfinal [1, 6]: 99.47% | API % (w/v) at t = tfinal [1, 7]: 0.51 % (w/v) | API % peak area at t = tfinal [1, 7]: 99.27% | Particle Size [2]: 270 nm | Polydispersity Index (PDI) [2]: 0.142 | Draize-Ocular Irritation [3]: no irritation was seen | AUC(0-t) ([4]; choroid, read-out: AUC0-last Choroid): 37.2 µM·h | Cmax ([4]; choroid, read-out: Cmax Choroid): 3900 nM | AUC(0-t) ([4]; retina, read-out: AUC0-last Retina): 1.15 µM·h | Cmax ([4]; retina, read-out: Cmax Retina): 193 nM

CCCNC(=O)n1c(C)cc2c(F)c(Oc3ncnc4cc(OC)c(OC)cc34)ccc21 [Compound 13, 5-(6,7-Dimethoxyquinazolin-4-yloxy)-4-fluoro-2-methyl-N-propyl-1H-indole-1-carboxamide]
Particle Size [2]: 165 nm | Polydispersity Index (PDI) [2]: 0.227

From patent US10758539B2, “Therapeutic compounds and uses thereof” (Kala Pharmaceuticals, Inc., priority 2013, dated 2020)
